Results published in PubChem BioAssay (NCI).
“And” between values parts separate entries of the source, which are not always exact repeats. Equal values may be shown once.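 Interpolation was linear, between the two tested concentrations surrounding the appropriate level; five concentrations were tested over 48 hours in 96-well plates. Here, GI50 denotes the concentration required for 50% inhibition of growth. TGI is the concentration that stops growth completely.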

How the values were obtained:
Assay in all cases: NCI anticancer screen, dose series, 48 h
[1] = tested on: MDA-MB-435
[2] = tested on: MDA-N
[3] = tested on: DLD-1 colon
[4] = tested on: KM20L2 colon
[5] = tested on: M19-MEL melanoma
[6] = tested on: RXF-631 renal

Cc1ccc(CNc2c3ccccc3nc3cc(NC(=O)CCN4CCCC4)ccc23)cc1
GI50 [1]: 1330 nM
TGI [1]: 2.62 µM

C[CH2][Sn]([CH2]C)([O]C(=O)C(OC(C)=O)c1ccccc1)[O]C(=O)C(OC(C)=O)c1ccccc1 (stereo unspecified)
GI50 [1]: > 100000 nM
TGI [1]: > 100 µM
GI50 [2]: 50 µM
TGI [2]: > 100 µM

C=C1C(=O)OC2C1C(OC(=O)/C(C)=C/C)CC(O)(CCl)C1C(O)C3OC3(C)C21O (stereo unspecified)
TGI [1]: > 50 µM
TGI [2]: > 50 µM

COc1ccc(/C=C2\CCCC3=C2NC(N)=NC3c2ccc(OC)c(OC)c2)cc1OC (stereo unspecified)
GI50 [1]: 1430 nM
TGI [1]: > 100 µM

CCOc1ccccc1N=Nc1c(C)[nH]n(-c2nc(-c3ccccc3)cs2)c1=O
GI50 [1]: > 100000 nM
TGI [1]: > 100 µM

O=C(COc1ccc(/C=C2\Oc3ccccc3C2=O)cc1)Nc1nc2c(s1)CCCC2
GI50 [1]: 3980 nM
TGI [1]: > 100 µM

CC1(C)[C@@H](OC(N)=O)[C@H]2O[C@H]2[C@]2(CO)[C@H]3CC[C@]4(C)[C@@H](c5ccc(=O)oc5)[C@@H](Cl)C[C@]4(O)C3=CC[C@@H]12
GI50 [1]: 10.1 nM
TGI [1]: 0.0386 µM

COc1c2c(nc3ccccc13)-c1cc3c(c(=O)n1C2)COC(=O)C3(O)CC(=O)N1CCOCC1 (stereo unspecified)
TGI [1]: 76.9 µM
TGI [3]: > 100 µM
TGI [4]: > 100 µM
TGI [5]: 44.8 µM
TGI [2]: > 100 µM

O=C1c2ccccc2-c2c1c1ccccc1c(=O)n2CCN1CCOCC1
GI50 [1]: > 100000 nM
TGI [1]: > 100 µM

CN1CC[C@@H](c2c(O)cc(O)c3c(=O)cc(-c4ccccc4Cl)oc23)[C@@H]1CO
GI50 [1]: 271 nM
TGI [1]: 1.1 µM

O=C(NN1C(=O)CSC12CCCC2)c1[nH]c2ccc(Br)cc2c1-c1ccccc1
GI50 [1]: 23400 nM
TGI [1]: 63.7 µM

COc1ccc(C(=O)C(c2ccc(OC)cc2)C2(O)C(=O)Nc3c2ccc(Cl)c3C)cc1 (stereo unspecified)
TGI [6]: > 100 µM
TGI [4]: > 100 µM
TGI [5]: > 100 µM

Clc1nc(Cl)c2ncn(C/C=C/COc3cccc(OC/C=C/Cn4cnc5c(Cl)nc(Cl)nc54)c3)c2n1
GI50 [1]: > 100000 nM
TGI [1]: > 100 µM

COc1ccc(C2SC(C)C(=O)N2NC(=O)C(O)c2ccccc2)cc1OC (stereo unspecified)
GI50 [1]: > 100000 nM
TGI [1]: > 100 µM

O=C(NC[C@H](O)CO)c1ccncc1Nc1ccc(I)cc1F
GI50 [1]: 9.07 nM and 25.7 nM
TGI [1]: > 100 µM

CCN(CC)Cc1ccc(Nc2nccc(-c3cnn4ncccc34)n2)cc1
GI50 [1]: 23.2 nM
TGI [1]: 0.0945 µM

COc1ccc2ccccc2c1C1OC(=O)c2ccccc21 (stereo unspecified)
TGI [3]: > 100 µM
TGI [6]: > 100 µM
TGI [4]: > 100 µM
TGI [5]: > 100 µM

COc1ccc(OC)c(NC(=O)CCC/C(CC(=O)c2ccc(O)c(OC)c2)=N\Nc2ccc([N+](=O)[O-])cc2)c1
TGI [3]: > 100 µM
TGI [6]: > 100 µM
TGI [4]: > 100 µM
TGI [5]: > 100 µM

C[C@]12CC[C@H]3[C@@H](CC[C@]4(O)C[C@@H](O)CC[C@]34/C=N/O)[C@@]1(O)CC[C@@H]2C1=COC(=O)C1
TGI [1]: 0.623 µM
TGI [2]: 1.03 µM

COc1cc(C2C(Cl)C(=O)N2NC(=O)c2ccc(N)cc2)ccc1O (stereo unspecified)
TGI [3]: > 100 µM
TGI [4]: > 100 µM
TGI [5]: > 100 µM

COc1ccc(/C=C\c2cc(OC)c(OC)c(OC)c2)cc1OC
TGI [3]: 40.4 µM
TGI [6]: 40.4 µM
TGI [4]: 0.141 µM

CCOC(=O)NC(=O)c1cn(CCCCCCOC(=O)NCCCCCCNC(=O)OCCCCCCn2cc(C(=O)NC(=O)OCC)c(=O)[nH]c2=O)c(=O)[nH]c1=O
TGI [3]: > 100 µM
TGI [6]: > 100 µM
TGI [4]: > 100 µM
TGI [5]: > 100 µM

O=C(Nc1cccc(NC(=O)Nc2cc(C(F)(F)F)ccc2Cl)c1)Nc1cc(C(F)(F)F)ccc1Cl
GI50 [1]: 5560 nM
TGI [1]: > 100 µM

Cn1cc(C2=C(c3cccc(OCC(O)CO)c3)C(=O)NC2=O)c2ccccc21 (stereo unspecified)
GI50 [1]: > 19100 nM
TGI [1]: > 25 µM

CN(C)c1ccc2c(c1)OC(N)=C(C#N)C2c1ccc2c(c1)CCO2 (stereo unspecified)
GI50 [1]: < 15.6 nM
TGI [1]: 0.095 µM

C1CN(SSN2CCOCC2)CCO1
GI50 [1]: 33800 nM
TGI [1]: > 100 µM

CCc1ccc(NC(=O)COC(=O)c2cc([N+](=O)[O-])ccc2Sc2nnnn2C)cc1
GI50 [1]: 3420 nM
TGI [1]: 21.4 µM

O=c1nc2oc3ccc4ccccc4c3cc-2s1
GI50 [1]: 259 nM
TGI [1]: 0.783 µM

O=S1(=O)OCCOS(=O)(=O)C1Cc1ccccc1
TGI [3]: > 100 µM
TGI [4]: > 100 µM
TGI [5]: > 100 µM

COC(=O)CCC(NC(=S)N/N=C/c1ccco1)C(=O)OC (stereo unspecified)
TGI [3]: > 100 µM
TGI [6]: > 100 µM
TGI [4]: > 100 µM
TGI [5]: > 100 µM

CCCCN(CCCC)c1ccc(C(=N)c2ccc(N(CCCC)CCCC)cc2)cc1
GI50 [1]: 642 nM
TGI [1]: 2.21 µM

COC(=O)C1=CC2C(=O)OC1CC2C#N (stereo unspecified)
TGI [3]: > 100 µM
TGI [4]: > 100 µM

O=C(c1ccccc1)c1cccc(C(=O)c2ccccc2)c1
TGI [3]: > 100 µM
TGI [5]: > 100 µM

O=C(Nc1ccc(Cl)c(Cl)c1)O/N=C\c1c(Cl)ccc([N+](=O)[O-])c1Cl
GI50 [1]: 1900 nM
TGI [1]: 4.43 µM

CC(=O)C1C(=O)C(=O)N(c2ccccc2C(C)C)C1=O (stereo unspecified)
TGI [4]: > 100 µM
TGI [5]: > 100 µM

C=C1C(=O)OC2/C=C(/C)C(OC(C)=O)CC(O)/C(C)=C\C(OC(=O)/C(C)=C\C)C12 (stereo unspecified)
TGI [1]: > 100 µM
TGI [2]: > 100 µM

CC1=C2C(=CC(C)(C)C2O)C(=O)C(C)(O)C12CC2 (stereo unspecified)
TGI [3]: 0.0447 µM
TGI [4]: 0.0522 µM
TGI [5]: 0.0861 µM

NC(=O)c1c(NC(=O)c2ccc3c(c2)OCO3)sc2c1CCC(=O)C2
GI50 [1]: 3160 nM
TGI [1]: > 100 µM

C[C@]12CCC3[C@@H](CC[C@@H]4c5nonc5CC[C@]34C)C1C/C(=N/O)C2=O (stereo partly specified)
TGI [6]: > 100 µM
TGI [4]: > 100 µM
TGI [5]: > 100 µM

CCOc1cc2ncc(C#N)c(Nc3ccc(OCc4ccccn4)c(Cl)c3)c2cc1NC(=O)/C=C/CN(C)C
GI50 [1]: 902 nM and 770 nM
TGI [1]: 2.52 µM and 5.37 µM

COc1cc([C@H]2OC[C@H]3[C@@H]2CO[C@@H]3c2cc(OC)c3c(c2)OCO3)cc(OC)c1OC
TGI [1]: > 100 µM
TGI [2]: > 100 µM
